Legend:
[1] = test system: c-MYC Pu22 (DNA, G4) TGAGGGTGGGTAGGGTGGGTAA; experiment: UV-vis and fluorescence titration; conditions: 100 mM KCl; 50 mM Tris pH 7.5, 25 °C; 1.5-3.0 μM compound, up to 5.0 eq. DNA
[2] = test system: Tel-22 (DNA, G4) AGGGTTAGGGTTAGGGTTAGGG; experiment: UV-vis and fluorescence titration; conditions: 100 mM KCl; 50 mM Tris pH 7.5, 25 °C; 1.5-3.0 μM compound, up to 5.0 eq. DNA
[3] = test system: TBA (DNA, G4) GGTTGGTGTGGTTGG; experiment: UV-vis and fluorescence titration; conditions: 100 mM KCl; 50 mM Tris pH 7.5, 25 °C; 1.5-3.0 μM compound, up to 5.0 eq. DNA
[4] = test system: c-MYC Pu22 (DNA, G4) TGAGGGTGGGTAGGGTGGGTAA; experiment: fluorescence titration, 1:1 global fit (Bindfit); conditions: 100 mM KCl; 50 mM Tris pH 7.5, 25 °C, 0.6% DMSO; 1.5 μM compound
[5] = test system: c-KIT 2 (DNA, G4) CCCGGGCGGGCGCGAGGGAGGGGAGG; experiment: fluorescence titration, 1:1 global fit (Bindfit); conditions: 100 mM KCl; 50 mM Tris pH 7.5, 25 °C, 0.6% DMSO; 1.5 μM compound
[6] = test system: VAV-1 (DNA, G4) GGGCAGGGAGGGAACTGGG; experiment: fluorescence titration, 1:1 global fit (Bindfit); conditions: 100 mM KCl; 50 mM Tris pH 7.5, 25 °C, 0.6% DMSO; 1.5 μM compound
[7] = test system: BCL-2 (DNA, G4) GGGCGCGGGAGGGAATTGGCGGGG; experiment: fluorescence titration, 1:1 global fit (Bindfit); conditions: 100 mM KCl; 50 mM Tris pH 7.5, 25 °C, 0.6% DMSO; 1.5 μM compound
[8] = test system: Tel-22 (DNA, G4) AGGGTTAGGGTTAGGGTTAGGG; experiment: fluorescence titration, 1:1 global fit (Bindfit); conditions: 100 mM KCl; 50 mM Tris pH 7.5, 25 °C, 0.6% DMSO; 1.5 μM compound
[9] = test system: c-MYC Pu22 (DNA, G4) TGAGGGTGGGTAGGGTGGGTAA; experiment: fluorescence displacement of 2a; conditions: tracer 2a displaced
[10] = test system: c-MYC Pu24T (DNA, G4) TGAGGGTGGTGAGGGTGGGGAAGG; experiment: 1D 1H NMR titration, imino shifts; conditions: 10 mM potassium phosphate, 35 mM KCl; pH 7.4, 298 K; 90 μM DNA, up to 5 eq. 2a
[11] = test system: c-MYC sG4 (DNA, G4) GGGTGGGTAGGGTGGG; experiment: fluorescence titration, 1:1 global fit (Bindfit); conditions: 100 mM KCl; 50 mM Tris pH 7.5, 25 °C, 0.6% DMSO; 1.5 μM compound

## N=C(N)c1cc2ccc(O)cc2oc1=O
[1]
  binding: no
[2]
  binding: no
[3]
  binding: no

## N=C(N)c1cc2cc3c4c(c2oc1=O)CCCN4CCC3
[4]
  Kd: 0.3 µM
[5]
  Kd: 0.7 µM
[6]
  Kd: 0.3 µM
[7]
  Kd: 0.5 µM
[8]
  Kd: 3.8 µM

## C[n+]1cc(NC(=O)c2ccc3ccc4ccc(C(=O)Nc5cc6ccccc6[n+](C)c5)nc4c3n2)cc2ccccc21
[9]
  binding: yes

## CCN(CC)c1ccc2cc(C(=N)N)c(=O)oc2c1
[10]
  binding: yes
[4]
  Kd: 13.0 µM
[5]
  Kd: 9.1 µM
[6]
  Kd: 15.0 µM
[7]
  Kd: 14.6 µM
[8]
  Kd: 45.2 µM
[11]
  Kd: 12.6 µM

Reference: article PMC8397291 (2021)
